Laboratory results published in patent US11083699B2, “Trans-4-hydroxycyclohexyl phenyl amide mitofusin activators and methods of use thereof” (MITOCHONDRIA EMOTION, INC., priority 2019, dated 2021).
Where two headings read alike, the source gives them in different places.

Key:
[1] = molecular target: P-gp (Homo sapiens, UniProt P08183); assay: P-gp study, bidirectional permeability in NIH MDR1 cells; assay type: in vitro ADME
[2] = Stability in mouse liver microsomes; assay type: in vitro ADME
[3] = Stability in human liver microsomes; assay type: in vitro ADME
[4] = Parallel artificial membrane permeability assay (PAMPA); assay type: in vitro ADME
[5] = Mouse PK, plasma and brain levels after single IV dose; assay type: in vivo; details: single 10 mg/kg IV
[6] = molecular target: T1, MAO-A (Homo sapiens, UniProt P21397); assay: Receptor/kinase panel: MAO-A; assay type: biochemical; details: off-target DAT/MAO-A at 10 μM vs on-target potency
T1 sequence (P21397 1-527): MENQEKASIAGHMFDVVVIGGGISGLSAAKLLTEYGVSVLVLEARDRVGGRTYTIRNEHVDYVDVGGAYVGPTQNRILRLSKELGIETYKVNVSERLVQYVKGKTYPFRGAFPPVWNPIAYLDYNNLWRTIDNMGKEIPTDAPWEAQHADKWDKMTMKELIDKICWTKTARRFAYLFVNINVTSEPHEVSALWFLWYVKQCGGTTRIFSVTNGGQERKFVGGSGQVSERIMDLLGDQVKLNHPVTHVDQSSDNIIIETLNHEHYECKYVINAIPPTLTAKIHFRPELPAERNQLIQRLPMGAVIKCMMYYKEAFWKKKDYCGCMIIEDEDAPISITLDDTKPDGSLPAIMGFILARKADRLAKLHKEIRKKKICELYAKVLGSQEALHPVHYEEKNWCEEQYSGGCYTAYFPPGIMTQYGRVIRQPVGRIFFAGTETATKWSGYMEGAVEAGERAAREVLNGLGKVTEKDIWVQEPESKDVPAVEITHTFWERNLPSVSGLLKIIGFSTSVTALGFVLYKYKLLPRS

[7] = GF120918 −, read-out: Mean Recovery % A to B

Sequence of P-gp (P08183 whole entry): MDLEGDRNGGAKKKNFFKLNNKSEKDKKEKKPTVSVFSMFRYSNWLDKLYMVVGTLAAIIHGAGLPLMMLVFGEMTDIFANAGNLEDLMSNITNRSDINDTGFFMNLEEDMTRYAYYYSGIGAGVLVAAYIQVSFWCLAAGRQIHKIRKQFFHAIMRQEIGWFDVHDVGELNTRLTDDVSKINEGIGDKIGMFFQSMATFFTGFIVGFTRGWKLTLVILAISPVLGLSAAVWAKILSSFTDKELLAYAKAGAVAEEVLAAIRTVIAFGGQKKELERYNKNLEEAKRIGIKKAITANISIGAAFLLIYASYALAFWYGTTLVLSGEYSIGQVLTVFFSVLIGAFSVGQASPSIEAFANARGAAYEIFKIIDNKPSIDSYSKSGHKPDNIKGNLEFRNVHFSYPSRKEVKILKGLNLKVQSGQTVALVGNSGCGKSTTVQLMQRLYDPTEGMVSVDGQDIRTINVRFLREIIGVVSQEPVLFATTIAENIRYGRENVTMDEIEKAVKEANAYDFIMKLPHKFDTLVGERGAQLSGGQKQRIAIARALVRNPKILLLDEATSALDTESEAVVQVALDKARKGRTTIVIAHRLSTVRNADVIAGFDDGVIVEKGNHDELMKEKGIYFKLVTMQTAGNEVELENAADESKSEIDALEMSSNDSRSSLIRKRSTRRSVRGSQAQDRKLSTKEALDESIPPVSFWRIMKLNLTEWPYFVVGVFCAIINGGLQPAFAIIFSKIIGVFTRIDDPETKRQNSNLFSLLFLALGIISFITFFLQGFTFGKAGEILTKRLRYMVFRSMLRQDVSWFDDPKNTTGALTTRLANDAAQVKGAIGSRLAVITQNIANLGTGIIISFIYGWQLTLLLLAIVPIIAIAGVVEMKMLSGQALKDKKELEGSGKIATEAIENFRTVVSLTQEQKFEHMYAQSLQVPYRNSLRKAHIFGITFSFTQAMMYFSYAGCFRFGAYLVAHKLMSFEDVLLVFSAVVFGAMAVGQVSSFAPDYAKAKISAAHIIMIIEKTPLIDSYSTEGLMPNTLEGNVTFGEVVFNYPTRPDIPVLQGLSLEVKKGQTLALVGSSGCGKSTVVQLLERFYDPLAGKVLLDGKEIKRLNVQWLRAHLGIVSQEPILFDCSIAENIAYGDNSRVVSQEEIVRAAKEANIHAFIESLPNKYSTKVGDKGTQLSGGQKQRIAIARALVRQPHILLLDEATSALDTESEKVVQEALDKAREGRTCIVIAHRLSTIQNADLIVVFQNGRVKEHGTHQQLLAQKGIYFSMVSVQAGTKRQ

recovery [1, 7] [%] | t1/2 MLM [2] [h] | t1/2 HLM [3] [h] | Structure (SMILES) | also measured
98.9 |  |  | C[C@H]1O[C@@H](O[C@H]2[C@@H](O)C[C@H](O[C@H]3[C@@H](O)C[C@H](O[C@H]4CC[C@@]5(C)[C@H](CC[C@@H]6[C@@H]5C[C@@H](O)[C@]5(C)[C@@H](C7=CC(=O)OC7)CC[C@]65O)C4)O[C@@H]3C)O[C@@H]2C)C[C@H](O)[C@@H]1O [Digoxin] | recovery ([1]; GF120918 −, read-out: Mean Recovery % B to A): 103%; Papp B→A ([1]; MDCK-MDR1, with GF120918 (concentration not stated), GF120918 +): 2.05 ×10⁻⁶ cm/s; Papp B→A ([1]; MDCK-MDR1, GF120918 −): 13.4 ×10⁻⁶ cm/s; recovery ([1]; with GF120918 (concentration not stated), GF120918 +, read-out: Mean Recovery % B to A): 99.3%
 | >2.42 | >2.42 | O=C(CCOCCc1ccccc1)N[C@H]1CC[C@H](O)CC1 [Compound 23] | 
 | >2.42 | >2.42 | O=C(CCCCOc1ccccc1)N[C@H]1CC[C@H](O)CC1 [Compound 21] | 
 |  |  | O=C(CCCCCc1ccccc1)N[C@H]1CC[C@H](O)CC1 [Compound 15B, N-(trans-4-Hydroxycyclohexyl)-6-phenylhexanamide] | Vdss (volume of distribution at steady state) [5]: 0.35 L/kg; time therapeutic brain levels (>30 ng/g) were maintained [5]: more than 2 hours; safety window compared to on-target efficacy [6]: 1,000 fold
105 |  |  | COCCc1ccc(OCC(O)CNC(C)C)cc1 (centres unmarked) [Metoprolol] | Papp A→B ([1]; MDCK-MDR1, GF120918 −): 21.2 ×10⁻⁶ cm/s
 | >2.42 | >2.42 | O=C(CCCOCc1ccccc1)N[C@H]1CC[C@H](O)CC1 [Compound 22] | 
97.9 |  |  | CC(C)(C)NCC(O)COc1cccc2c1CC(O)C(O)C2 (centres unmarked) [Nadolol] | Papp A→B ([1]; MDCK-MDR1, GF120918 −): 0.26 ×10⁻⁶ cm/s
 | >2.42 | >2.42 | O=C(COCCCc1ccccc1)N[C@H]1CC[C@H](O)CC1 [Compound 24] | 

Structure (SMILES) | recovery [1, 7] [%] | t1/2 MLM [2] [h] | t1/2 HLM [3] [h] | also measured
O=C(N[C@H]1CC[C@H](O)CC1)OCCCCc1ccccc1 [Compound 25] |  | 0.815 | 2.188 | PAMPA compared to parent trans-N-(4-hydroxycyclohexyl)-6-phenylhexanamide [4]: 10 fold
